These results are taken from DBAASP.

What all share (assay): ≥ marks a high value that may be exact or a test limit, other limits are often not marked, values filed in µg/mL are converted to µM
Assay [1] has as its system Staphylococcus aureus JCM 2874.
Assay [2] has as its system Candida albicans JCM 2085.
In assay [3] the test system is Bacillus cereus JCM 2152.
The subject of assay [4] is Staphylococcus aureus ATCC 29213.
The subject of assay [5] is Salmonella enterica subsp. enterica serovar Enteritidis ATCC 13076.
Assay [6] has as its system Pseudomonas aeruginosa ATCC 27853.
Assay [7] has as its system Streptococcus pyogenes ATCC 19615.
Assay [8] has as its system Serratia marcescens ATCC 21202.
For assay [9], the system named is Escherichia coli ATCC 25922.
Assay [10] deals with Bacillus cereus ATCC 11778.
Assay [11] has as its system Klebsiella pneumoniae ATCC 700603.
The test system of assay [12] is Pseudomonas aeruginosa PA-W1.
In assay [13] the test system is Klebsiella pneumoniae.
Assay [14] concerns Pseudomonas aeruginosa PAO1.
Assay [15] relates to Staphylococcus aureus.
Assay [16] concerns Escherichia coli K-12.
Assay [17] concerns Staphylococcus aureus NCTC 8325-4.
Assay [18] relates to Bacillus subtilis CGMCC 1.3376.
The subject of assay [19] is Staphylococcus aureus CGMCC 1.8721.
The test system of assay [20] is Staphylococcus epidermidis CGMCC 1.4260.
Assay [21] concerns Pseudomonas aeruginosa CGMCC 1.2421.
The subject of assay [22] is Escherichia coli CGMCC 1.8732.
Assay [23] concerns Klebsiella pneumoniae CGMCC 1.1736.
The subject of assay [24] is Klebsiella pneumoniae Q14-0095.
The subject of assay [25] is Campylobacter jejuni NCTC 11351.
Assay [26] relates to Acinetobacter baumannii.
Assay [27] relates to Staphylococcus aureus Q14-0325.
The subject of assay [28] is Campylobacter jejuni.
Assay [29] relates to Salmonella typhimurium SL1344.
Assay [30] relates to Staphylococcus aureus RN4220.
In assay [31] the test system is Enterococcus faecalis JH-2-2.
Assay [32] has as its system Pseudomonas aeruginosa Q14-0208.
The test system of assay [33] is Staphylococcus aureus Q14-0320.
Assay [34] concerns Staphylococcus aureus MRSA-15.
The test system of assay [35] is Listeria monocytogenes NCTC 11994.
In assay [36] the test system is Staphylococcus aureus NCTC 12493.
In assay [37] the test system is Pseudomonas aeruginosa Q14-0890.
Assay [38] concerns Acinetobacter baumannii Q13-0717.
Assay [39] relates to Acinetobacter baumannii Q12-0809.
Assay [40] has as its system Escherichia coli.
Assay [41] deals with Acinetobacter baumannii Q12-0867.
The subject of assay [42] is Klebsiella pneumoniae NCTC 13442.
Assay [43] has as its system Klebsiella pneumoniae Q14-0146.

Molecules are shown by their SMILES. Values after ≈ are worked out from the molar mass of the structure shown.

In general, MIC refers to the smallest concentration in the dilution series that meets the test's criterion for growth inhibition. High values mean a need for much substance, low ones inhibition by little substance.

Regarding `CC[C@H](C)[C@H](NC(=O)[C@H](CCCCN)NC(=O)[C@H](CO)NC(=O)[C@@H](NC(=O)[C@H](CC(C)C)NC(=O)[C@H](CO)NC(=O)[C@@H]1CCCN1C(=O)[C@H](CC(C)C)NC(=O)[C@H](Cc1ccccc1)NC(=O)[C@H](CC(N)=O)NC(=O)[C@H](C)NC(=O)[C@H](CC(C)C)NC(=O)[C@H](C)NC(=O)CNC(=O)[C@@H](NC(=O)[C@@H](NC(=O)[C@H](CO)NC(=O)CNC(=O)[C@H](Cc1ccccc1)NC(=O)[C@@H](N)Cc1ccccc1)[C@@H](C)O)[C@@H](C)CC)[C@@H](C)CC)C(=O)N[C@@H](CCCN=C(N)N)C(=O)N[C@@H](CC(N)=O)C(N)=O` [FFGSTIGALANFLPSLISKIRN], the MIC is 27 µM (≈ 64 µg/mL) in assay [1], 27 µM (≈ 64 µg/mL) in assay [2] and 6.76 µM (≈ 16 µg/mL) in assay [3].
`CC[C@H](C)[C@H](NC(=O)[C@H](CC(=O)O)NC(=O)[C@H](CCSC)NC(=O)[C@H](CC(C)C)NC(=O)CN)C(=O)N[C@@H](Cc1ccccc1)C(=O)N[C@@H](CCCCN)C(=O)N[C@H](C(=O)N[C@@H](C)C(=O)N[C@H](C(=O)N[C@@H](CC(N)=O)C(=O)N[C@@H](CCCCN)C(=O)N[C@@H](CC(C)C)C(=O)N[C@@H](CC(C)C)C(=O)N[C@@H](C)C(=O)N[C@@H](C)C(=O)NCC(=O)N[C@@H](CCSC)C(=O)N[C@@H](CC(N)=O)C(=O)N[C@@H](CCCCN)C(=O)N1CCC[C@H]1C(=O)N[C@@H](CCCN=C(N)N)C(=O)N[C@H]1CSSC[C@@H](C(=O)O)NC(=O)[C@H](Cc2cnc[nH]2)NC(=O)[C@H](C)NC(=O)[C@H](C)NC(=O)[C@H](CCCCN)NC1=O)C(C)C)C(C)C` [GLMDIFKVAVNKLLAAGMNKPRCKAAHC]: the MIC in assay [4] was 9.35 µM (≈ 28 µg/mL); in [5], 17.8 µM (≈ 53.4 µg/mL); in assay [6] it was greater than 33.3 µM; in assay [7], 17.8 µM (≈ 53.4 µg/mL); in [8], 9.35 µM (≈ 28 µg/mL); in assay [9] it was 9.35 µM (≈ 28 µg/mL). Also, the MIC in assay [10] came to 17.8 µM (≈ 53.4 µg/mL); in assay [11] it was 9.35 µM (≈ 28 µg/mL).
In the case of `CC(C)C[C@H](NC(=O)[C@H](CCCCN)NC(=O)[C@H](CCCCN)NC(=O)[C@H](CC(C)C)NC(=O)[C@H](CC(C)C)NC(=O)[C@H](CCCCN)NC(=O)[C@H](CCCCN)NC(=O)[C@H](CC(C)C)NC(=O)[C@H](CC(C)C)NC(=O)[C@H](CCCCN)NC(=O)[C@H](CCCCN)NC(=O)[C@@H](N)CC(C)C)C(N)=O` [LKKLLKKLLKKL], the MIC was 15.6 µM (≈ 22.9 µg/mL) in assay [12]; 31.3 µM (≈ 45.9 µg/mL) in assay [13]; 7.81 µM (≈ 11.4 µg/mL) in assay [14]; 62.5 µM (≈ 91.6 µg/mL) in assay [15]; 7.81 µM (≈ 11.4 µg/mL) in [16]; 15.6 µM (≈ 22.9 µg/mL) in assay [17].
Consider `CC[C@H](C)[C@H](NC(=O)[C@H](CO)NC(=O)CNC(=O)[C@@H](NC(=O)[C@@H](N)CCCN=C(N)N)[C@@H](C)CC)C(=O)N[C@@H](CC(C)C)C(=O)NCC(=O)N[C@@H](C)C(=O)N[C@@H](CC(C)C)C(=O)N[C@@H](C)C(=O)N[C@@H](CCCCN)C(=O)NCC(=O)N[C@@H](CC(C)C)C(=O)N1CCC[C@H]1C(=O)N[C@H](C(=O)N[C@@H](CC(C)C)C(=O)N[C@H](C(=O)N[C@@H](CO)C(=O)N[C@@H](Cc1c[nH]c2ccccc12)C(=O)N[C@H](C(=O)N[C@@H](CCCCN)C(=O)N[C@@H](CC(N)=O)C(=O)N[C@@H](CCCN=C(N)N)C(N)=O)[C@@H](C)CC)[C@@H](C)CC)[C@@H](C)O` [RIGSILGALAKGLPTLISWIKNR], for which the MIC amounted to 6.25 µM (≈ 15.5 µg/mL) in assay [18]; 6.25 µM (≈ 15.5 µg/mL) in assay [19]; 3.13 µM (≈ 7.75 µg/mL) in assay [20]; 6.25 µM (≈ 15.5 µg/mL) in [21]; 12.5 µM (≈ 31 µg/mL) in [22]; 12.5 µM (≈ 31 µg/mL) in assay [23].
Take `CSCC[C@H](NC(=O)[C@@H](N)[C@@H](C)O)C(=O)N[C@@H](CO)C(=O)N[C@@H](CC(C)C)C(=O)N[C@@H](CCCN=C(N)N)C(=O)N[C@@H](Cc1ccccc1)C(=O)N[C@@H](Cc1c[nH]c2ccccc12)C(=O)N[C@@H](CCCN=C(N)N)C(=O)N[C@@H](Cc1c[nH]c2ccccc12)C(=O)N[C@@H](CCCCN)C(=O)N[C@H](C(=O)N[C@@H](CCCN=C(N)N)C(=O)O)C(C)C` [TMSLRFWRWKVR]: the MIC in [24] was no less than 76.8 µM; in [25] it was no less than 76.8 µM; in assay [26], no less than 76.8 µM; in assay [27], no less than 76.8 µM; in assay [4], 76.8 µM (≈ 128 µg/mL); in assay [28], no less than 76.8 µM. The MIC was 76.8 µM (≈ 128 µg/mL) in assay [6]; no less than 38.4 µM in assay [29]; no less than 38.4 µM in assay [30]; no less than 38.4 µM in [31]; no less than 76.8 µM in assay [32]; no less than 76.8 µM in assay [33]. The MIC in assay [34] was no less than 38.4 µM; in assay [35], no less than 38.4 µM; in assay [14], 38.4 µM (≈ 64 µg/mL); in assay [36], no less than 38.4 µM; in [37], no less than 38.4 µM; in assay [16] it was no less than 38.4 µM. In addition, the MIC was 19.2 µM (≈ 32 µg/mL) in [38]; no less than 38.4 µM in assay [39]; 76.8 µM (≈ 128 µg/mL) in [40]; 9.6 µM (≈ 16 µg/mL) in assay [41]; no less than 76.8 µM in assay [42]; no less than 76.8 µM in [43]. Further, the MIC in assay [11] was greater than 76.8 µM.
